Measured values as given in patent US10053453B2, “Compounds and their use as BACE inhibitors” (AstraZeneca AB, priority 2014, dated 2018).
Where two headings read alike, the source gives them in different places.

How the values were obtained:
[1] = target: T1, Human BACE1 (Homo sapiens, UniProt P56817); test: Diluted TR-FRET assay; type: biochemical; conditions: 50 times less enzyme, 6.5 h reaction time at r.t.; read-out: IC50 BACE1 (dil. TR-FRET)
T1 construct: the soluble part of the human β-Secretase1 (AA1-AA460) was cloned using the BACE1(1-460)-(AVT)-Fc-pGEN-IRES-neo mammalian expression vector; AVT linker (C); made in house
In short: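 Human BACE1 (residues 1-460) was fused to an IgG1 Fc affinity tag and stably expressed in HEK 293 cells. Using a Multidrop Combi, 7 μL enzyme was added to 0.8 μL compound in dimethylsulphoxide and incubated 10 minutes. Reactions were stopped with 5.5 μL NaOAC Stop solution (pH 9), and TR-FRET fluorescence was read on a Pherastar HTRF module.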

[2] = target: T2, Human BACE2 (Homo sapiens, UniProt Q9Y5Z0); test: TR-FRET assay; type: biochemical; conditions: substrate 100 nM, pH4.5
T2 construct: the soluble part of the human β-Secretase2 (AA1-AA473) was cloned using BACE2(1-473)-(AVT)-Fc-pDEST12.2 mammalian expression vector; AVT linker (C); made in house
T2 sequence (Q9Y5Z0 21-473): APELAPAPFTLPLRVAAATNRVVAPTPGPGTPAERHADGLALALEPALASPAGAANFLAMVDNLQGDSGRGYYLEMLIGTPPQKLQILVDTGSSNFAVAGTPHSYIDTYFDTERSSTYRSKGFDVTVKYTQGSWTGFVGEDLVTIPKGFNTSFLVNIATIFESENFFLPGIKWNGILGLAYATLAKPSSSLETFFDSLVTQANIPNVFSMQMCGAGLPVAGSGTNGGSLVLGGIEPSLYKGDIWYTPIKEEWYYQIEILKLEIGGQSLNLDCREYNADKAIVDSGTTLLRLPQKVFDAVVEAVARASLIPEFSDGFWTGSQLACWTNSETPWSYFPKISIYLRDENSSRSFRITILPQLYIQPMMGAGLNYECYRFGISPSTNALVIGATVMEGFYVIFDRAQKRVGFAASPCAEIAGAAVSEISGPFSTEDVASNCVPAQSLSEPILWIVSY

[3] = system: SH-SY5Y cells; test: sAPPβ release assay
[4] = Homo sapiens, SH-SY5Y, read-out: IC50 Cell (sAPPβ release, nM), SH-SY5Y cells, compounds incubated 16-17 h
[5] = read-out: IC50 Cell (sAPPβ release), SH-SY5Y cells, compounds incubated 16-17 h

T1 sequence (P56817 22-460): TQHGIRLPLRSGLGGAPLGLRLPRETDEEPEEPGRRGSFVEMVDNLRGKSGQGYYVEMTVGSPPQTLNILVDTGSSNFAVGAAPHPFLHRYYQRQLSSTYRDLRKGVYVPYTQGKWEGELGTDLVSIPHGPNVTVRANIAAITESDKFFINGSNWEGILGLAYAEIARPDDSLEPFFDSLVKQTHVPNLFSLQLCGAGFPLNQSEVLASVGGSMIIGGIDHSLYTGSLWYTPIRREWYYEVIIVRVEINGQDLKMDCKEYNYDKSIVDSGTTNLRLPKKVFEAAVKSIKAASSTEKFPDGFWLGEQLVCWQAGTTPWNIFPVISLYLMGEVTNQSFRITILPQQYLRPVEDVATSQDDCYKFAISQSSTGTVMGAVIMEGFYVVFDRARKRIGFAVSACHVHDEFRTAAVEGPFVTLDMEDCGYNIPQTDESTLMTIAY

IC50 ([2]; enzyme 2.7 μg/mL) [nM]	IC50 [3, 4] [nM]	Molecule	IC50 [1] [nM]	IC50 ([2]; enzyme […]) [nM]	IC50 [3, 5] [nM]
> 5000	26	[2H]C1([2H])OC(N)=N[C@]12c1cc(-c3cncnc3C)ccc1C[C@]21CC[C@@H](OC)CC1 [Compound 116, {(1r,1′R,4R)-4-methoxy-6′-(4-methylpyrimidin-5-yl)-3′H,5″H-dispiro[cyclohexane-1,2′-indene-1′,4″-oxazol]-5″,5″-d2-2″-amine}]	1130		
1090	13	[2H]C1([2H])OC(N)=N[C@]12c1cc(C#N)ccc1C[C@]21CC[C@@H](OC)[C@H](C)C1 [Compound 119, {(1R,1′R,3R,4R)-6′-cyano-4-methoxy-3-methyl-3′H,5″H-dispiro[cyclohexane-1,2′-indene-1′,4″-oxazol]-5″,5″-d2-2″-amine}]	294		
1630	7	[2H]C1([2H])OC(N)=N[C@]12c1cc(C#N)ccc1C[C@@]21CC[C@H](OC)[C@@H](C)C1 [Compound 120, {(1S,1′R,3S,4S)-6′-cyano-4-methoxy-3-methyl-3′H,5″H-dispiro[cyclohexane-1,2′-indene-1′,4″-oxazol]-5″,5″-d2-2″-amine}]	191		
		(1r,3R,4r,5S)-4-methoxy-3,5-dimethyl-6′-(5-(trifluoromethyl)pyridin-3-yl)-3′H,5″H-dispiro[cyclohexane-1,2′-indene-1′,4″-oxazol]-2″-amine [Compound 30]	169	344	11.3
		(1′R,4′S)-4′-methoxy-6″-(pyridin-3-yl)-3″H,5′″H-trispiro[cyclopropane-1,3′-cyclohexane-1′,2″-indene-1″,4′″-oxazol]-5′″,5′″-d2-2′″-amine and (1′S,4′R)-4′-methoxy-6″-(pyridin-3-yl)-3″H,5′″H-trispiro[cyclopropane-1,3′-cyclohexane-1′,2″-indene-1″,4′″-oxazol]-5′″,5′″-d2-2′″-amine [Compound 87]	262	3480	4.7
		(1′R,4′S)-4′-methoxy-6″-(pyrimidin-5-yl)-3″H,5′″H-trispiro[cyclopropane-1,3′-cyclohexane-1′,2″-indene-1″,4′″-oxazol]-5′″,5′″-d2-2′″-amine and (1′S,4′R)-4′-methoxy-6″-(pyrimidin-5-yl)-3″H,5′″H-trispiro[cyclopropane-1,3′-cyclohexane-1′,2″-indene-1″,4′″-oxazol]-5′″,5′″-d2-2′″-amine [Compound 86]	144	4750	5.9
